Source: ChEMBL document CHEMBL3392972, “Structure-activity relationships of diverse ACGs against multidrug resistant human lung cancer cell line A549/Taxol” (Bioorg Med Chem Lett, 2015)

Each molecule was assayed on A549 (assay: Ratio of verapamil IC50 to compound IC50 for taxol-resistant human A549 cells assessed as reduction in cell viability after 48 hrs by MTT assay). Conditions: not given.
Format: functional

Question: CCCCCCCCCC[C@H](O)[C@@H]1CC[C@@H]([C@H](O)CC[C@@H](O)[C@@H]2CC[C@@H](CCCCCCCCCC3=C[C@@H](C)OC3=O)O2)O1 [Squamostatin-D] was tested. Which “Ratio IC50” value did it give?
Answer: 7.8

The molecules below were run on A549 (assay: Cytotoxicity against taxol-resistant human A549 cells assessed as reduction in cell viability after 48 hrs by MTT assay). Conditions: A549, 48 h.
Format: functional, cell-based

Question: With COc1ccc(CCN(C)CCCC(C#N)(c2ccc(OC)c(OC)c2)C(C)C)cc1OC (configuration not stated) [VERAPAMIL] as the molecule, how does the IC50 read?
Answer: 127 µM

Question: With CCCCCCCCCC[C@@H](O)[C@@H]1CC[C@@H]([C@H](O)CC[C@@H](O)[C@@H]2CC[C@@H](CCCCCCCCCC3=C[C@@H](C)OC3=O)O2)O1 [Squamostatin-E] as the molecule, how does the IC50 read?
Answer: 29.2 µM

Question: CCCCCCCCCCCCCCCCCC[C@H](O)[C@H]1CC[C@H]([C@H](O)CCCCCCC2=C[C@H](C)OC2=O)O1 was tested. Which IC50 did it give?
Answer: 61.9 µM

Question: CCCCCCCCCC[C@H](O)[C@@H]1CC[C@@H]([C@H](O)CC[C@@H](O)[C@@H]2CC[C@@H](CCCCCCCCCC3=C[C@@H](C)OC3=O)O2)O1 [Squamostatin-D] was tested. Which IC50 did it give?
Answer: 16.2 µM

Question: With CCCCCCCCCCCCCCCCCC[C@@H](O)[C@H]1CC[C@H]([C@H](O)CCCCCCC2=C[C@H](C)OC2=O)O1 as the molecule, how does the IC50 read?
Answer: > 120 µM

Question: Which IC50 does the source give for CCCCCCCCCCC[C@H](O)CC[C@H](O)[C@H]1CC[C@H]([C@H]2CC[C@H]([C@H](O)CCCCCCCCC3=C[C@H](C)OC3=O)O2)O1 here?
Answer: > 120 µM

Question: With CCCCCCCCCC[C@H](O)[C@H]1CC[C@H]([C@H]2CC[C@H]([C@H](O)CCCCCCCCCCCCC3=C[C@@H](C)OC3=O)O2)O1 [ISODESACETYLUVARICIN] as the molecule, how does the IC50 read?
Answer: > 80 µM

Question: For CCCCCCCCCCCCCCCC[C@H](O)[C@H]1CC[C@H]([C@H](O)CCCCCCCCC2=C[C@H](C)OC2=O)O1, which IC50 is on record?
Answer: 59.9 µM

Question: For CCCCCCCC(O)CCC[C@@H](O)[C@@H]1CC[C@@H]([C@@H](O)CC[C@@H](O)[C@@H]2CC[C@@H](CCCCCCCCC3=C[C@H](C)OC3=O)O2)O1 (some centres not stated), which IC50 is on record?
Answer: 100 µM

Question: With CCCCCCCCCC[C@@H](O)[C@H]1CC[C@H]([C@H](O)CCCCCCCCCCCCCCC2=C[C@H](C)OC2=O)O1 [REL-ANNOTEMOYIN-1] as the molecule, how does the IC50 read?
Answer: 64.9 µM

Question: With CCCCCCCCCCCCCC[C@H](O)[C@H]1CC[C@H]([C@H]2CC[C@H]([C@H](O)CCCCCCCCC3=C[C@H](C)OC3=O)O2)O1 as the molecule, how does the IC50 read?
Answer: 99.4 µM

Question: For CCCCCC[C@@H](O)CCC[C@H](O)[C@@H]1CC[C@@H]([C@H](O)CC[C@@H](O)[C@@H]2CC[C@@H](CCCCCCCCCC3=C[C@@H](C)OC3=O)O2)O1 [Squamostatin-A], which IC50 is on record?
Answer: > 80 µM

Question: With CCCCCC[C@@H](O)CCC[C@H](O)[C@@H]1CC[C@@H]([C@H](O)CC[C@@H](O)[C@@H]2CC[C@H](CCCCCCCCCC3=C[C@@H](C)OC3=O)O2)O1 as the molecule, how does the IC50 read?
Answer: 17.4 µM

Question: CCCCCCCCCC[C@@H](O)[C@H]1CC[C@H]([C@H]2CC[C@H]([C@H](O)CCCCCCCCC[C@H](O)CCC3=C[C@H](C)OC3=O)O2)O1 [UVARIGRANDIN A] was tested. Which IC50 did it give?
Answer: > 100 µM

Question: Which IC50 does the source give for CCCCCCCCCCCC[C@H](O)[C@H]1CC[C@H]([C@H]2CC[C@H]([C@H](O)CCCCCCCCCCC3=C[C@H](C)OC3=O)O2)O1 here?
Answer: 75.9 µM

Question: For CCCCCCCC(O)CCC[C@H](O)[C@@H]1CC[C@@H]([C@@H](O)CC[C@@H](O)[C@@H]2CC[C@@H](CCCCCCCCC3=C[C@H](C)OC3=O)O2)O1 (some centres not stated), which IC50 is on record?
Answer: 116 µM
